{"source": "patent US12435044B2", "about": "“Pyridazinone herbicides and pyridazinone intermediates used to prepare a herbicide” (FMC Corporation, priority 2018, dated 2025)", "assay_type_in_all_cases": "in vivo", "key": {"[1]": {"test_system": "velvetleaf (ABUTH; Abutilon threophrasti)", "experiment": "Test H postemergence, mixtures of Cpd. No. 20 with atrazine or glyphosate", "source_text": "(§1) This test evaluated the effect of mixtures of Cpd. No. 20 with atrazine or glyphosate on several plant species. Seeds of plant species selected from corn (ZEAMD; Zea mays, cv. ‘Pioneer 1184’), soybean (GLXMA; Glycine max, cv. Pioneer 35T58), giant foxtail (SETFA; Setaria faberi), Surinamgrass (BRADC; Brachiaria decumbens), fall panicum (PANDI; Panicum dichotomiflorum), velvetleaf (ABUTH; Abutilon threophrasti), mare's tail (ERICA; Conyza canadensis), barnyardgrass (ECHCG; Echinochloa crus-galli), large crabgrass (DIGSA; Digitaria sanguinalis), palmer amaranth (AMAPA; Amaranthus palmeri), common waterhemp (AMATU; Amaranthus rudis), E. black nightshade (SOLPT; Solanum ptycanthum), and common ragweed (AMBEL; Ambrosia artemisiifolia) were planted in pots containing Redi-Earth® planting medium (Scotts Company, 14111 Scottslawn Road, Marysville, Ohio 43041) comprising spaghnum peat moss, vermiculite, wetting agent and starter nutrients and treated postemergence using test chemicals formulated in a non-phytotoxic solvent mixture which included a surfactant. Plants ranged in height from 2 to 10 cm and were in the one- to two-leaf stage for the postemergence treatment. Treated plants and untreated controls were maintained in a greenhouse for approximately 14 d, after which time all treated plants were compared to untreated controls and visually evaluated for injury. Plant response ratings, summarized in Tables H1 & H2, are based on a 0 to 100 scale where 0 is no effect and 100 is complete control. A dash (-) response means no test result. Test results are presented as a mean of 4 reps."}, "[2]": {"test_system": "common waterhemp (AMATU; Amaranthus rudis)", "experiment": "Test H postemergence, mixtures of Cpd. No. 20 with atrazine or glyphosate", "source_text": "as §1"}, "[3]": {"test_system": "mare's tail (ERICA; Conyza canadensis)", "experiment": "Test H postemergence, mixtures of Cpd. No. 20 with atrazine or glyphosate", "source_text": "as §1"}, "[4]": {"test_system": "E. black nightshade (SOLPT; Solanum ptycanthum)", "experiment": "Test H postemergence, mixtures of Cpd. No. 20 with atrazine or glyphosate", "source_text": "as §1"}, "[5]": {"test_system": "fall panicum (PANDI; Panicum dichotomiflorum)", "experiment": "Test H postemergence, mixtures of Cpd. No. 20 with atrazine or glyphosate", "source_text": "as §1"}, "[6]": {"test_system": "common ragweed (AMBEL; Ambrosia artemisiifolia)", "experiment": "Test H postemergence, mixtures of Cpd. No. 20 with atrazine or glyphosate", "source_text": "as §1"}, "[7]": {"test_system": "barnyardgrass (ECHCG; Echinochloa crus-galli)", "experiment": "Test H postemergence, mixtures of Cpd. No. 20 with atrazine or glyphosate", "source_text": "as §1"}, "[8]": {"test_system": "Surinamgrass (BRADC; Brachiaria decumbens)", "experiment": "Test H postemergence, mixtures of Cpd. No. 20 with atrazine or glyphosate", "source_text": "as §1"}, "[9]": {"test_system": "giant foxtail (SETFA; Setaria faberi)", "experiment": "Test H postemergence, mixtures of Cpd. No. 20 with atrazine or glyphosate", "source_text": "as §1"}, "[10]": {"test_system": "large crabgrass (DIGSA; Digitaria sanguinalis)", "experiment": "Test H postemergence, mixtures of Cpd. No. 20 with atrazine or glyphosate", "source_text": "as §1"}, "[11]": {"test_system": "corn (ZEAMD; Zea mays, cv. ‘Pioneer 1184’)", "experiment": "Test H postemergence, mixtures of Cpd. No. 20 with atrazine or glyphosate", "source_text": "as §1"}, "[12]": {"test_system": "soybean (GLXMA; Glycine max, cv. Pioneer 35T58)", "experiment": "Test H postemergence, mixtures of Cpd. No. 20 with atrazine or glyphosate", "source_text": "as §1"}, "[13]": {"test_system": "palmer amaranth (AMAPA; Amaranthus palmeri)", "experiment": "Test H postemergence, mixtures of Cpd. No. 20 with atrazine or glyphosate", "source_text": "as §1"}, "[14]": {"test_system": "winter wheat (TRZAW; Triticum aetivum, cv. Arezzo)", "experiment": "Test of Tables L1 to L3, postemergence, mixtures of Cpd. No. 20 with benoxacor, isoxadifen-ethyl, or cloquintocet-mexyl", "conditions": "31 g a.i./ha", "source_text": "(§2) This test evaluated the effect of mixtures of Cpd. No. 20 with benoxacor, isoxadifen-ethyl, or cloquintocet-mexyl on several plant species. Seeds of plant species selected from corn (ZEAMD; Zea mays, cv. ‘Pioneer 1184’), soybean (GLXMA; Glycine max, cv. Pioneer 35T58), winter wheat (TRZAW; Triticum aetivum, cv. Arezzo), rice (ORYSS; Oryza sativa, cv. M202), and giant foxtail (SETFA; Setaria faberi) were planted in pots containing Redi-Earth® planting medium (Scotts Company, 14111 Scottslawn Road, Marysville, Ohio 43041) comprising spaghnum peat moss, vermiculite, wetting agent and starter nutrients and treated postemergence using test chemicals formulated in a non-phytotoxic solvent mixture which included a surfactant. Plants ranged in height from 7 to 10 cm and were in the one- to two-leaf stage for the postemergence treatment. Treated plants and untreated controls were maintained in a greenhouse for approximately 14 d, after which time all treated plants were compared to untreated controls and visually evaluated for injury. Plant response ratings, summarized in Tables L1 to L3, are based on a 0 to 100 scale where 0 is no effect and 100 is complete control. A dash (-) response means no test result. Test results are presented as a mean of 4 reps."}, "[15]": {"test_system": "giant foxtail (SETFA; Setaria faberi)", "experiment": "Test of Tables L1 to L3, postemergence, mixtures of Cpd. No. 20 with benoxacor, isoxadifen-ethyl, or cloquintocet-mexyl", "conditions": "31 g a.i./ha", "source_text": "as §2"}, "[16]": {"test_system": "rice (ORYSS; Oryza sativa, cv. M202)", "experiment": "Test of Tables L1 to L3, postemergence, mixtures of Cpd. No. 20 with benoxacor, isoxadifen-ethyl, or cloquintocet-mexyl", "conditions": "31 g a.i./ha", "source_text": "as §2"}, "[17]": {"test_system": "corn (ZEAMD; Zea mays, cv. ‘Pioneer 1184’)", "experiment": "Test of Tables L1 to L3, postemergence, mixtures of Cpd. No. 20 with benoxacor, isoxadifen-ethyl, or cloquintocet-mexyl", "conditions": "31 g a.i./ha", "source_text": "as §2"}, "[18]": {"test_system": "soybean (GLXMA; Glycine max, cv. Pioneer 35T58)", "experiment": "Test of Tables L1 to L3, postemergence, mixtures of Cpd. No. 20 with benoxacor, isoxadifen-ethyl, or cloquintocet-mexyl", "conditions": "31 g a.i./ha", "source_text": "as §2"}}, "data": [{"smiles": "O=C(O)CNCP(=O)(O)O", "note": "[Glyphosate, glyphosate]", "values": [{"measurement": "Observed result (plant response rating), ABUTH", "setting": "[1]; applied alone at 62 g a.i./ha", "result": 0}, {"measurement": "Observed result (plant response rating), ABUTH", "setting": "[1]; applied alone at 125 g a.i./ha", "result": 15}, {"measurement": "Observed result (plant response rating), AMATU", "setting": "[2]; applied alone at 62 g a.i./ha", "result": 11}, {"measurement": "Observed result (plant response rating), AMATU", "setting": "[2]; applied alone at 125 g a.i./ha", "result": 25}, {"measurement": "Observed result (plant response rating), ERICA", "setting": "[3]; applied alone at 62 g a.i./ha", "result": 0}, {"measurement": "Observed result (plant response rating), ERICA", "setting": "[3]; applied alone at 125 g a.i./ha", "result": 0}, {"measurement": "Observed result (plant response rating), SOLPT", "setting": "[4]; applied alone at 62 g a.i./ha", "result": 43}, {"measurement": "Observed result (plant response rating), SOLPT", "setting": "[4]; applied alone at 125 g a.i./ha", "result": 51}, {"measurement": "Observed result (plant response rating), PANDI", "setting": "[5]; applied alone at 62 g a.i./ha", "result": 28}, {"measurement": "Observed result (plant response rating), PANDI", "setting": "[5]; applied alone at 125 g a.i./ha", "result": 51}, {"measurement": "Observed result (plant response rating), AMBEL", "setting": "[6]; applied alone at 62 g a.i./ha", "result": 68}, {"measurement": "Observed result (plant response rating), AMBEL", "setting": "[6]; applied alone at 125 g a.i./ha", "result": 84}, {"measurement": "Observed result (plant response rating), ECHCG", "setting": "[7]; applied alone at 62 g a.i./ha", "result": 6}, {"measurement": "Observed result (plant response rating), ECHCG", "setting": "[7]; applied alone at 125 g a.i./ha", "result": 31}, {"measurement": "Observed result (plant response rating), BRADC", "setting": "[8]; applied alone at 62 g a.i./ha", "result": 68}, {"measurement": "Observed result (plant response rating), BRADC", "setting": "[8]; applied alone at 125 g a.i./ha", "result": 69}, {"measurement": "Observed result (plant response rating), SETFA", "setting": "[9]; applied alone at 62 g a.i./ha", "result": 74}, {"measurement": "Observed result (plant response rating), SETFA", "setting": "[9]; applied alone at 125 g a.i./ha", "result": 75}, {"measurement": "Observed result (plant response rating), DIGSA", "setting": "[10]; applied alone at 62 g a.i./ha", "result": 86}, {"measurement": "Observed result (plant response rating), DIGSA", "setting": "[10]; applied alone at 125 g a.i./ha", "result": 90}, {"measurement": "Observed result (plant response rating), ZEAMD", "setting": "[11]; applied alone at 62 g a.i./ha", "result": 68}, {"measurement": "Observed result (plant response rating), ZEAMD", "setting": "[11]; applied alone at 125 g a.i./ha", "result": 74}, {"measurement": "Observed result (plant response rating), GLXMA", "setting": "[12]; applied alone at 62 g a.i./ha", "result": 10}, {"measurement": "Observed result (plant response rating), GLXMA", "setting": "[12]; applied alone at 125 g a.i./ha", "result": 25}, {"measurement": "Observed result (plant response rating), AMAPA", "setting": "[13]; applied alone at 62 g a.i./ha", "result": 43}, {"measurement": "Observed result (plant response rating), AMAPA", "setting": "[13]; applied alone at 125 g a.i./ha", "result": 23}]}, {"smiles": "CC1COc2ccccc2N1C(=O)C(Cl)Cl", "note": "(stereo not shown) [Benoxacor, benoxacor, reference compound]", "values": [{"measurement": "TRZAW plant response rating, 0 to 100 scale", "setting": "[14]", "result": 0}, {"measurement": "SETFA plant response rating, 0 to 100 scale", "setting": "[15]", "result": 0}, {"measurement": "ORYSS plant response rating, 0 to 100 scale", "setting": "[16]", "result": 0}, {"measurement": "ZEAMD plant response rating, 0 to 100 scale", "setting": "[17]", "result": 0}, {"measurement": "GLXMA plant response rating, 0 to 100 scale", "setting": "[18]", "result": 0}]}]}
